Measurements reported in US10342795B2, “Substituted 4,5,6,7-tetrahydro-pyrazolo[1,5-a]pyrimidine derivatives and 2,3-dihydro-1H-imidazo[1,2-b]pyrazole derivatives as ROS1 inhibitors” (Janssen Pharmaceutica NV, priority 2014, dated 2019).

Key:
[1] = test system: HCC78 non-small cell lung cancer cells; experiment: HCC78 cell proliferation assay; type: cell-based; settings: Homo sapiens, HCC78, 96 h; -log EC50 (M); 4 days, MTT; read-out: HCC-78 PROL pEC50 (converted)
Description: Approximately 1000 HCC78 non-small cell lung cancer cells in 180 μl of cell culture medium (RPMI-1640, 10% FBS, 2 mM L-Glutamine, 10 mM Hepes, 1 mM sodium pyruvate, 4.5 g/L glucose, 1.5 g/L sodium bicarbonate, 25 μg/ml Gentamycin) were seeded in each well of a 96-well polystyrene, tissue-culture treated plate and incubated at 37° C. and 5% CO2. After 24 hours, compounds were diluted in cell culture medium from which 20 μl was added to the wells containing cells and incubated for 4 days at 37° C. and 5% CO2. A 5 mg/ml solution of the tetrazolium dye MTT was prepared in PBS (phosphate-buffered saline) and 25 μl was added to each well. After 2 hours the medium was removed and replaced by 125 μL of 4/1 DMSO/glycine buffer (0.1M glycine, 0.1M NaCl, pH 10.5) before absorbance was determined at 538 nm.

Ros1 enzyme = biological target: T1, Ros1 enzyme (Homo sapiens, UniProt P08922); experiment: Ros1 enzymatic assay; type: biochemical; settings: -log IC50 (M); 20 μM ATP, 120 min at room temperature; read-out: ROS1 pIC50 (converted)
T1 construct: 0.5 μg/ml Ros1 enzyme
Description: Compounds were spotted onto white 384-well Proxiplate plus plates (Perkin Elmer) to which 5 μl of enzyme mix (0.5 μg/ml Ros1 enzyme, 50 mM Tris-HCl pH7.5, 1 mM EGTA, 10 mM MgCl2, 0.01% Tween-20) and 5 μl of substrate mix (6 μg/ml IRS-Tide [American Peptide Company], 20 μM ATP, 13.33 μCi/ml ATP (adenosine 5′-triphosphate) P^33, 50 mM Tris-HCl pH7.5, 1 mM EGTA (ethylene glycol-bis(2-aminoethylether)-N,N,N′,N′-tetraacetic acid), 10 mM MgCl2, 0.01% Tween-20) were added. After incubation for 120 minutes at room temperature, 10 μl of stop reaction buffer (5 mM EDTA, 50 μM ATP, 0.1% BSA (bovine serum albumin), 0.1% Triton X-100, 50 mM Tris-HCl pH7.5, 1 mM EGTA, 10 mM MgCl2, 0.01% Tween-20) containing 2 mg/ml streptavidin coupled polystyrene imaging beads (Amersham Biosciences) was added and incubated for 15 minutes at room temperature. Plates were centrifuged for 3 minutes at 1500 rpm and signals detected in a LEADseeker imaging system (GE).

[2] = biological target: Ba/F3 cells containing Ros1 wild-type protein (Homo sapiens, UniProt P08922, cells depend on it, form not given); experiment: Ba/F3-Ros1 cell proliferation assay, wild-type Ros1, without IL-3; type: cell-based, murine; settings: -log IC50 (M); wild-type Ros1, no IL-3, 24 h, Alamar Blue
Description: (§1) This assay was carried out with Ba/F3 cells containing three different versions of Ros1: the wild-type protein, protein with a mutation at the gatekeeper residue (L2026M), and protein with a mutation identified in a tumor from a patient that became resistant to crizotinib (Xalkori®) treatment (G2032R). Compounds were solubilized in 100% DMSO (dimethyl sulfoxide) and sprayed into polystyrene, tissue culture treated 384-well plates. A 50 μl volume of cell culture medium (phenol red free RPMI-1640, 10% FBS (fetal bovine serum), 2 mM L-Glutamine) containing 20000 Ba/F3-Ros1 cells was added to each well and the plates were placed in an incubator at 37° C. and 5% CO2. After 24 hours, 10 μl of Alamar Blue solution (0.5 mM K3Fe(CN)6, 0.5 mM K4Fe(CN)6, 0.15 mM Resazurin and 100 mM Phosphate Buffer) was added to the wells, incubated for 4 hours at 37° C. and 5% CO2 before RFU's (Relative Fluorescence Units) (ex. 540 nm., em. 590 nm.) were measured in a fluorescence plate reader.

[3] = test system: Ba/F3 cells containing Ros1 wild-type protein + IL-3; experiment: Ba/F3-Ros1 cell proliferation counter-screen, wild-type Ros1 in the presence of murine IL-3; type: cell-based; settings: Mus musculus, BaF3, 24 h; -log IC50 (M); wild-type Ros1, 10 ng/ml murine IL-3 (counter-screen); read-out: BaF3-ROS1 + IL3 pIC50 (converted)
Description: as §1
As a counter-screen the same experiment was performed for the wild-type protein in the presence of 10 ng/ml murine IL-3.

[4] = biological target: Ba/F3 cells containing Ros1 L2026M (Homo sapiens, UniProt P08922, L2026M, cells depend on it, form not given); experiment: Ba/F3-Ros1 cell proliferation assay, L2026M gatekeeper mutant; type: cell-based, murine; settings: -log IC50 (M), no IL-3
Description: as §1

Sequence of Ba/F3 cells containing Ros1 wild-type protein (P08922 whole entry, stated change not applied): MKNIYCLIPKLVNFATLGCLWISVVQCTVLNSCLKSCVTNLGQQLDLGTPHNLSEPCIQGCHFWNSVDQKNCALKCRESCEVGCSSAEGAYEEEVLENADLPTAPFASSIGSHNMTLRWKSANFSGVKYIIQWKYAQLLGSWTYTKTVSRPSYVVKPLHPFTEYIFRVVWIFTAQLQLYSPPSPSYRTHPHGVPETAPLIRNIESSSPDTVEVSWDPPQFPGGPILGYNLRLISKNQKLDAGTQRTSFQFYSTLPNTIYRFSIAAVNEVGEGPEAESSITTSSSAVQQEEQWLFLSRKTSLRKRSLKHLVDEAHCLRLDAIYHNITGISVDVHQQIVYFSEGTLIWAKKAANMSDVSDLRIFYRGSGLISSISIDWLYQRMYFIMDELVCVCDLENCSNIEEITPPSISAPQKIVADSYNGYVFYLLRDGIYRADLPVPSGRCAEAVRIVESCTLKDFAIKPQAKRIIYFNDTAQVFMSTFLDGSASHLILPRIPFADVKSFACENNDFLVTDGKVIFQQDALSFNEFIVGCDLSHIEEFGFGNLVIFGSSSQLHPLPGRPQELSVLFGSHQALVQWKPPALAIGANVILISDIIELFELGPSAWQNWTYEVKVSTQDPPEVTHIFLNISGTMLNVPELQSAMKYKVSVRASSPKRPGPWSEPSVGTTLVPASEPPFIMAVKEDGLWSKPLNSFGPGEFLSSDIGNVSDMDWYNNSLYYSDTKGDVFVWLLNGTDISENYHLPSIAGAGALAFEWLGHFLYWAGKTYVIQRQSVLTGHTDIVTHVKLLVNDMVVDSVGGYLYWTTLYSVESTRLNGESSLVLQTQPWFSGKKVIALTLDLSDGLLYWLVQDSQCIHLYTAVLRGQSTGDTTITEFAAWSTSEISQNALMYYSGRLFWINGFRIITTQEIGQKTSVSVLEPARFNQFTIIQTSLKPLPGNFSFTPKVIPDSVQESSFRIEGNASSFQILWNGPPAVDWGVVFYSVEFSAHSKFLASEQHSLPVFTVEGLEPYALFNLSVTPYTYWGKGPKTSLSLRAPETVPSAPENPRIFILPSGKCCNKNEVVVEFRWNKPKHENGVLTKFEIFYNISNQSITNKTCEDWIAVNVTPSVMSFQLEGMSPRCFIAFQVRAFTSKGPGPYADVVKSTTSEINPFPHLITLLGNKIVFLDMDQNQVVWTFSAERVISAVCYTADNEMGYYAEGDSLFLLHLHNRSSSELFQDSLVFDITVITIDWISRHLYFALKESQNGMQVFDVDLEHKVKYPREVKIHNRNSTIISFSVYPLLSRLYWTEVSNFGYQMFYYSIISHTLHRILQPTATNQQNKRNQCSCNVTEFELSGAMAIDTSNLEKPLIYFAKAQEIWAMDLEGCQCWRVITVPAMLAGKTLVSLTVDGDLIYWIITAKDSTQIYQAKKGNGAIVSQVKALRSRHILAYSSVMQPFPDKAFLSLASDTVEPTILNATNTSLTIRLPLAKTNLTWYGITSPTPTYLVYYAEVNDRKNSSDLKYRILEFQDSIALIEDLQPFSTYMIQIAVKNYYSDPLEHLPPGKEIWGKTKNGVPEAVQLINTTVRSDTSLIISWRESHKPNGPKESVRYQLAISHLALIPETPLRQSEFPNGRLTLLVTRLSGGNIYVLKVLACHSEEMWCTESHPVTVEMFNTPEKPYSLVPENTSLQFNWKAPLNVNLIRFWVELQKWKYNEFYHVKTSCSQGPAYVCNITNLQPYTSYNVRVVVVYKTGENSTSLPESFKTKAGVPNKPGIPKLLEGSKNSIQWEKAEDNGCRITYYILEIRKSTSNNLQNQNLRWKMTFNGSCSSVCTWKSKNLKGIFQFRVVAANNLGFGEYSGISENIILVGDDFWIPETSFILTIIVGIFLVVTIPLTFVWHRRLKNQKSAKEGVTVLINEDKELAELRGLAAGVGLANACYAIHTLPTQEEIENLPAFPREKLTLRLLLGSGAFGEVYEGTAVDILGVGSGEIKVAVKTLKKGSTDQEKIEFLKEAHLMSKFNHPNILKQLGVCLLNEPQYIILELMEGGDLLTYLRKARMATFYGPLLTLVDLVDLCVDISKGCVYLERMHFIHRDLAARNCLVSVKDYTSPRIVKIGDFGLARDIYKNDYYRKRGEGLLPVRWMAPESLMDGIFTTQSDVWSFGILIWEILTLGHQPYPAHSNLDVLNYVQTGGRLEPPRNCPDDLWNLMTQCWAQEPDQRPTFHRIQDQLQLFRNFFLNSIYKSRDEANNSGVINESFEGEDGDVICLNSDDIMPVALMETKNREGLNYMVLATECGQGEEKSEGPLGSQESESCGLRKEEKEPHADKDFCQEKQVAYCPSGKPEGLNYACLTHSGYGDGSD
T1 sequence (P08922 28-2347): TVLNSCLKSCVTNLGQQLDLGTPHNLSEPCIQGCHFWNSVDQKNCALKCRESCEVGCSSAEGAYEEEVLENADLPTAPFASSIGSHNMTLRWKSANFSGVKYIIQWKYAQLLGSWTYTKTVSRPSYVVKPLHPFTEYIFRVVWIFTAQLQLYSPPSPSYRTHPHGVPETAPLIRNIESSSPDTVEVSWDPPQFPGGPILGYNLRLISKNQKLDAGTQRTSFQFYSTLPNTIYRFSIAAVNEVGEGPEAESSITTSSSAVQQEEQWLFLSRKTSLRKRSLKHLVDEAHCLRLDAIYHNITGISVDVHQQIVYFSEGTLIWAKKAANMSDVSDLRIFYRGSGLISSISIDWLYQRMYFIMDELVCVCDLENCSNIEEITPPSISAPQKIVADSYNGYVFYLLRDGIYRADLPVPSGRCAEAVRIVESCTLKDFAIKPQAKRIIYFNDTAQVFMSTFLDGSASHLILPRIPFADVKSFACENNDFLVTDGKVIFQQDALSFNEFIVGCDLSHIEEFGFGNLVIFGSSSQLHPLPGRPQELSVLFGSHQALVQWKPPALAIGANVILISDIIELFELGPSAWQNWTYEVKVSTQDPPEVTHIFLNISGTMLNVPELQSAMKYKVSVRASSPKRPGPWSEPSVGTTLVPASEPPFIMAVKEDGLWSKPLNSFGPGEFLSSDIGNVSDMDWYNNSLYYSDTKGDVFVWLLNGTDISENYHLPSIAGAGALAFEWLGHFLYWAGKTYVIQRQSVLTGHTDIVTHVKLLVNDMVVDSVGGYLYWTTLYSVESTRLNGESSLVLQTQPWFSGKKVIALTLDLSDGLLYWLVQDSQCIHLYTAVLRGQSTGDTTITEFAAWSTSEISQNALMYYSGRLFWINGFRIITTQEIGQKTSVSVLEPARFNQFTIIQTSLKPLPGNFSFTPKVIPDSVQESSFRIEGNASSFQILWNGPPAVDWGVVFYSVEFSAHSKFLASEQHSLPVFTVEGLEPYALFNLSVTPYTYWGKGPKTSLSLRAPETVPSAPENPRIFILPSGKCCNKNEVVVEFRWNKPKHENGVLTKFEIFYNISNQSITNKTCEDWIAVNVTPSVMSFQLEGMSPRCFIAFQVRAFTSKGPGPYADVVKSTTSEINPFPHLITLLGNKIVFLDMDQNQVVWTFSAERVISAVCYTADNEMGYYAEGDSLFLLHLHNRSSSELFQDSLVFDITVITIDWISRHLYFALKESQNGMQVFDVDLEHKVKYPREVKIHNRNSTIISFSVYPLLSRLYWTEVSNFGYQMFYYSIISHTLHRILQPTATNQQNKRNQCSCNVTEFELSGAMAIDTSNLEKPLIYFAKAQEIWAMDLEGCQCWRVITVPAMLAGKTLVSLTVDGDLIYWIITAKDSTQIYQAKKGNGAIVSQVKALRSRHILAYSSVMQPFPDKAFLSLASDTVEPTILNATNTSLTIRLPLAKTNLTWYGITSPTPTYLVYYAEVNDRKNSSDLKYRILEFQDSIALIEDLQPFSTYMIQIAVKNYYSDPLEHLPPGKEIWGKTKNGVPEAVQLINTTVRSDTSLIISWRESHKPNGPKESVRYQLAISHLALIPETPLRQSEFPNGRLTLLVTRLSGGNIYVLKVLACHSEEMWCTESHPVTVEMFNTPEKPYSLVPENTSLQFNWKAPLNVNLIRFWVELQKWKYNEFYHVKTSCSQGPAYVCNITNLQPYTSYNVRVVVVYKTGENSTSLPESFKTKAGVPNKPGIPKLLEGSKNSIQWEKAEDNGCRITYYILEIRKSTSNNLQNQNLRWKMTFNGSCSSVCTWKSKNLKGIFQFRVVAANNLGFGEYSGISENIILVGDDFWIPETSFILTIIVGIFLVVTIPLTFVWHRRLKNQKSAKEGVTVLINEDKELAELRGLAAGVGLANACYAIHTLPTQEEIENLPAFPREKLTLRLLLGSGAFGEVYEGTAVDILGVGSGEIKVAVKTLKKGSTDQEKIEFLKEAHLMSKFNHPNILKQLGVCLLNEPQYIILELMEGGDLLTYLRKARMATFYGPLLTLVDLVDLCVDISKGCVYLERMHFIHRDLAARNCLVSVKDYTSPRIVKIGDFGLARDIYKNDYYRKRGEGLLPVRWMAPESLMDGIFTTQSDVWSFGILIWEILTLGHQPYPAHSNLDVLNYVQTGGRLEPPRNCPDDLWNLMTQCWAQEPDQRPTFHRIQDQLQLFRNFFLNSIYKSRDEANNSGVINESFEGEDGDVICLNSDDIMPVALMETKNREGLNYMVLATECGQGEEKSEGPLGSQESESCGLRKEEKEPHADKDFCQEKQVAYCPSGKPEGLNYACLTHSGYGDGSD
Sequence of Ba/F3 cells containing Ros1 L2026M (P08922 whole entry L2026M, form open): as the sequence (P08922 whole entry, stated change not applied) above, with L2026M counted along it

Row | SMILES | EC50 [1] | IC50 (Ros1 enzyme) | BaF3-ROS1 − IL3 pIC50 [2] | Ba/F3 Ros1 L2026M (-IL-3) pIC50 [4] | melting point | CC50 [3]
1 | CNC(=O)C1CCNc2c(-c3ccc(OCc4ccc(C(C)C)cc4)cc3)c(-c3ccncc3)nn21 (stereo not shown) [Co. 26] | 1.58e-07 M | 3.16e-08 M | 7.1 | 6.7 |  | > 1e-05 M
2 | CC(C)c1ccc(COc2ccc(-c3c(-c4ccncc4)nn4ccc(=O)[nH]c34)cc2)cc1 [Co. E] | 5.01e-07 M | 6.31e-08 M | 7.1 | 6.9 | 243 °C | > 1e-05 M
3 | CC(C)c1ccc(COc2ccc(-c3c(-c4ccncc4)nn4c3NCC4)cc2)cc1CC(O)CO (stereo not shown) [Co. 9] | 5.01e-07 M | 6.31e-08 M | 7.3 | 5.5 |  | > 1e-05 M
4 | CC(C)c1ccc(COc2ccc(-c3c(-c4ccncc4)nn4cccnc34)cc2)cc1 [Co. A] |  | 7.94e-08 M | 6.8 |  |  | > 1e-05 M
5 | CC(C)c1ccc(COc2ccc(-c3c(-c4ccncc4)nn4c3N(C)C(=O)CC4)cc2)cc1 [Co. 22] |  | 5.01e-07 M | 6.4 |  | 160 °C | > 1e-05 M
6 | CNC(=O)c1ccnc2c(-c3ccc(OCc4ccc(C(C)C)cc4)cc3)c(-c3ccncc3)nn12 [Co. J] | 2e-06 M | 5.01e-07 M | 6.8 | 6.8 | 207 °C | > 1e-05 M
7 | CC(C)c1ccc(COc2ccc(-c3c(-c4ccncc4)nn4c3NCC4)cc2)c(F)c1F [Co. 8] | 2e-06 M | 1.58e-06 M | 6.3 | 7.5 | 149 °C | 3.98e-06 M
8 | CC(C)c1ccc(COc2ccc(-c3c(-c4ccncc4)nn4c3N(CCO)C(=O)CC4)cc2)cc1 [Co. 20] |  | 3.16e-07 M | 6.8 |  | 205 °C | > 1e-05 M
9 | CC(C)c1ccc(COc2ccc(-c3c(-c4ccncc4)nn4c3N(CCCN)CC4)cc2)cc1 [Co. 12] | 1.58e-06 M | 5.01e-07 M | 6.3 | 6 |  | ~4.47e-06 M
10 | CC(C)c1ccc(COc2ccc(-c3c(-c4ccncc4)nn4c3N(CCO)CCC4)cc2)cc1 [Co. 21] |  | 6.31e-08 M | 7.4 | 6.9 | 147 °C | > 1e-05 M
11 | CNCC1CCNc2c(-c3ccc(OCc4ccc(C(C)C)cc4)cc3)c(-c3ccncc3)nn21 (stereo not shown) [Co. 27] |  | 5.01e-07 M | 6.3 | 5.5 |  | ~6.31e-06 M
12 | CCOC(=O)c1ccnc2c(-c3ccc(OCc4ccc(C(C)C)cc4)cc3)c(-c3ccncc3)nn12 [Co. H] |  | 5.01e-07 M | 5.8 |  | 140 °C | > 1e-05 M
13 | COC(=O)c1ccn2nc(-c3ccncc3)c(-c3ccc(OCc4ccc(C(C)C)cc4)cc3)c2n1 [Co. G] |  | 1e-06 M | <5 |  |  | > 1e-05 M
14 | CC(C)c1ccc(COc2ccc(-c3c(-c4ccncc4)nn4c3NCC4)cc2)cc1C#N [Co. 6] |  | 2e-07 M | 6.7 | 6.4 | 158 °C | > 1e-05 M

More lines, main results first:

Row | EC50 [1] | IC50 (Ros1 enzyme) | BaF3-ROS1 − IL3 pIC50 [2] | Ba/F3 Ros1 L2026M (-IL-3) pIC50 [4] | melting point | SMILES | CC50 [3]
15 | 7.94e-07 M | 1.26e-07 M | 7.0 | 6.8 | 155 °C | CC(C)c1ccc(COc2ccc(-c3c(-c4ccncc4)nn4c3NCCC4CO)cc2)cc1 (stereo not shown) [Co. 25] | > 1e-05 M
16 | 7.94e-08 M | 6.31e-08 M | 7.5 | 7.6 | 199 °C | CC(C)c1ccc(COc2ccc(-c3c(-c4ccncc4)nn4c3NC(CO)CC4)cc2)cc1 (stereo not shown) [Co. 24] | 7.94e-06 M
17 | 7.94e-07 M | 2.51e-07 M | 7.0 | 6.8 |  | CC(C)c1ccc(COc2ccc(-c3c(-c4ccncc4)nn4c3NC(CO)C4)cc2)cc1 (stereo not shown) [Co. 11] | 2.51e-06 M
18 |  | 6.31e-08 M | 7.2 | 6.6 | 191 °C | CC(C)c1ccc(COc2ccc(-c3c(-c4ccncc4)nn4c3NCC4)c(C#N)c2)cc1 [Co. 3] | > 1e-05 M
19 | 1e-07 M | 3.16e-08 M | 7.9 | 7.8 |  | CC(C)c1ccc(COc2ccc(-c3c(-c4ccncc4)nn4c3NC(CO)CC4)c(F)c2)cc1 (stereo not shown) [Co. 23] | > 1e-05 M
20 | 6.31e-07 M | 1e-07 M | 7.1 | 7.1 | 159 °C | CC(C)c1ccc(COc2ccc(-c3c(-c4ccncc4)nn4c3NCC4)cn2)cc1 [Co. 4] | 1.26e-06 M
21 | 2e-07 M | 3.16e-08 M | 7.5 | 7.5 |  | Cc1ccn2nc(-c3ccncc3)c(-c3ccc(OCc4ccc(C(C)C)cc4)cc3F)c2n1 [Co. C] | > 1e-05 M
22 | 6.31e-07 M | 2.51e-07 M | 6.8 | <5 |  | CC(C)c1ccc(COc2ccc(-c3c(-c4ccncn4)nn4c3NCC4)c(F)c2)cc1 [Co. 15] | > 1e-05 M
23 |  | 2.51e-08 M | 7.2 |  | 187 °C | CC(C)c1ccc(COc2ccc(-c3c(-c4ccncc4)nn4cccnc34)c(F)c2)cc1 [Co. B] | > 1e-05 M
